Assay results taken from patent publication US10966993B2, “Pharmaceutical composition comprising a sulfonylurea drug and preparation method thereof” (JIANGSU AOSAIKANG PHARMACEUTICAL CO., LTD., priority 2016, dated 2021).

Tested on: MCAO rats
Assay: Area and swelling degree of cerebral infarction in rat MCAO models
Assay type: in vivo, Sprague-Dawley (SD) rat
Details: n=8, glibenclamide 10 μg/kg ip at ischemia 4 h + 200 ng/h sc for 44 hours, after ischemia for 48 hours
Method: 7.2 Experiment Animals: Male Sprague-Dawley (SD) rat, clean grade, weighing at 200˜230 g. The temperature of animal feeding room was maintained at 20˜24° C., the humidity was maintained at 30˜70%; a cycle of lighting on 12 hours/lighting off 12 hours (06:00 AM on, 18:00 PM off) every day was employed. During the experiment, the animals were feed separately, and had free access to water and food.
The test drugs in group GB was formulated as follows: glibenclamide was dissolved in a little DMSO (dimethyl sulfoxide), the resulting solution was diluted to a DMSO concentration of 5 vol % with physiological saline, and the pH of the solution was adjusted to 8˜8.5 with NaOH. […]
Rats were rested for about 1 week before the experiment started. […] The blood flow in the brain was monitored with a laser Doppler (Model moorVMS-LDF2, Manufacturer moor) respectively pre-operation, post-operation and immediately after reperfusion, and the molding in which the ratio of the postoperative blood flow to the preoperative blood flow was less than 30% was regarded as a qualified molding. […]
After ischemia for 48 hours, the brain was taken and put into a brain slicer to slice coronal sections through the brain (2 mm each piece), stained at dark with 1% TTC for 15 min at 37° C., and analyzed for the area of infarction after taking a photograph. […]

## COc1ccc(Cl)cc1C(=O)NCCc1ccc(S(=O)(=O)NC(=O)NC2CCCCC2)cc1 [glibenclamide, 5-chloro-N-(4-[N-(cyclohexylcarbamoyl)aminosulfonyl]phenethyl)-2-methoxybenzamide]
  Swelling degree (area of infarction side hemisphere / non-infarction side hemisphere): 1.31 ± 0.04
